Assay results: US20250214982A1, “COMPOUNDS USABLE AS MODULATORS OF PERK ACTIVITY” (Ramot at Tel-Aviv University Ltd., priority 2022, published 2025)
Values after ≈ are worked out from the molar mass of the structure shown.

Assays:
[1] = Lipophilicity (logD7.4); assay type: physicochemical
Experimental: (§1) The solubility and lipophilicity of GLB7 and GLB11, two exemplary compounds according to some embodiments of the present invention, were measured compared to the PERK activator MK-28.

[2] = biological target: T1, PERK (Homo sapiens, UniProt Q9NZJ5); assay: PERK activation: eIF2α phosphorylation relative to total eIF2α in HEK293 cells (Western blot); assay type: cell-based; conditions: for increase in eIF2α phosphorylation relative to total eIF2α: 24 hours
T1 construct: endogenous in cells; host or cells: HEK293
T1 sequence (Q9NZJ5 30-1116): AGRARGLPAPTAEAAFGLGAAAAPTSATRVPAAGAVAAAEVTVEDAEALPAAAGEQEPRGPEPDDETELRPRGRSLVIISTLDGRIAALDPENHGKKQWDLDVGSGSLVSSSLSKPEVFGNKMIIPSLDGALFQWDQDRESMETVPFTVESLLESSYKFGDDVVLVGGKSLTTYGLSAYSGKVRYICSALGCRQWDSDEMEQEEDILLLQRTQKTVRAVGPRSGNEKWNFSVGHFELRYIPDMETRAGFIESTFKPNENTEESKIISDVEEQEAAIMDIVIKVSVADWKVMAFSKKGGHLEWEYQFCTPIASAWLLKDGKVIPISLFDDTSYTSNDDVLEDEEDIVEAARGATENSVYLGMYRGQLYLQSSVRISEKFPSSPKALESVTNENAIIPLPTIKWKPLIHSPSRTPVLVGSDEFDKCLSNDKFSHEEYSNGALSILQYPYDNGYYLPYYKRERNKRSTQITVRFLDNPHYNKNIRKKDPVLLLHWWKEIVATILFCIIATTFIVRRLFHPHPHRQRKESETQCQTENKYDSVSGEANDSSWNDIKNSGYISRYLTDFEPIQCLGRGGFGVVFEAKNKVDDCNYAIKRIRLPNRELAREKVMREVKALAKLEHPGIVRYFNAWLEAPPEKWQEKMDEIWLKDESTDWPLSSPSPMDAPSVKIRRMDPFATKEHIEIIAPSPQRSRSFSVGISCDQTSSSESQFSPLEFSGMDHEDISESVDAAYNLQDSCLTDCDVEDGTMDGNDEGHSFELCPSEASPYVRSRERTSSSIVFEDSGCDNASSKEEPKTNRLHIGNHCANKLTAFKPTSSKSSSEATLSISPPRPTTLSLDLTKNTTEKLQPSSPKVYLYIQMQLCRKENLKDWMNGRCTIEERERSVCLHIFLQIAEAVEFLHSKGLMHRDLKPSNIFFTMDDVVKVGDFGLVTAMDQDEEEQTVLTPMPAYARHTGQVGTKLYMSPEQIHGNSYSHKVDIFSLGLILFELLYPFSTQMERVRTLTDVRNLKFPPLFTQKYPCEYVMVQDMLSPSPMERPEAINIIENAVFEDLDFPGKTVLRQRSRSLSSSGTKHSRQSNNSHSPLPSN
Experimental: FIG. 3A presents comparative bar graphs showing the effect of treatment with MK-28 or GLB7 (5 μM, 10 μM or 20 μM, as indicated), on the levels of eIF2α-phosphorylation (eIF2α-P) relatively to total eIF2α (eIF2α) in lysed HEK293 cells. Treatment with MK-28 began 24 hours before lysis. Data was obtained from quantification of Western blots (FIG. 3B), and immunoblotting was performed with anti-eIF2α-P or anti-total eIF2α antibodies.
For this purpose, HEK293 cells were untreated or treated with 5, 10 or 20 μM GLB7 or MK-28. After 24 hours, the cells were lysed and the phosphorylated eIF2α levels were measured relatively to the total eIF2α (a substrate of PERK).

[3] = Solubility; assay type: physicochemical; conditions: for solubility compared to MK-28 (fold higher): relative to MK-28
Experimental: as §1

[4] = tested on: STHdhQ111/111 cells; assay: ER stress (tunicamycin)-induced apoptosis in STHdhQ111/111 cells; assay type: cell-based, murine; conditions: 10 μM compound, tunicamycin 48 hours, read from FIG. 2
Experimental: FIG. 2 presents comparative plots showing the apoptosis rate of STHdh^Q111/111 cells as a function of concentration of the exemplary compounds GLB11 and GLC19, following incubation with tunicamycin for 48 hours), as described for FIG. 1. P values *<0.05, **<0.01, ***<0.001. The asterisks indicate the significance compared to untreated cells.
Cell culture and transfections: Mouse embryonic fibroblasts (MEF) cells were grown as described in the art. Murine striatal cell line expressing full-length polyQ-expanded Htt (STHdhQ111/111) cells were grown as described in Leitman et al. [PLOS One 2014, 9 (3): e90803]. HEK 293 and VERO cells were grown in DMEM supplemented with 10% bovine calf serum at 37° C. under 5% CO2.
Apoptosis: Apoptosis was measured by cell cycle progression using propidium iodide (PI), considering the fraction beneath G0/G1.
Statistical analysis: Generally, the results are expressed as mean±standard deviation of 3 independent experiments. Apoptosis in the presence of tunicamycin and in the absence of other compounds was normalized to 100 to allow comparison between experiments. Significance by Two-tailed Student's t-test.
In order to assess the effect of the exemplary compounds on apoptosis, similar assays were performed in mouse embryonic fibroblasts (MEF; FIG. 1) and in STHdhQ111/111 cells (FIG. 2).

Row | logD ([1]; pH 7.4) | Structure (SMILES) | lipophilicity compared to MK-28 ([1]; relative to MK-28) | increase in eIF2α phosphorylation relative to total eIF2α ([2]; 5 μM) [%] | increase in eIF2α phosphorylation relative to total eIF2α ([2]; 10 μM) [%] | increase in eIF2α phosphorylation relative to total eIF2α ([2]; 20 μM) [%] | PERK activation compared to MK-28 ([2]; lowest examined dose of 5 μM) | solubility [3] [µM] | solubility compared to MK-28 (fold higher) [3] [fold] | reduction of apoptosis [4]
1 |  | Oc1ccc(C=NNc2nc(-c3ccccc3)cc(-c3ccccc3)n2)cc1O (racemic) [GLB7, 4-((2-(4,6-diphenylpyrimidin-2-yl)hydrazono)methyl)benzene-1,2-diol] | decreased | ~70 | 50 | 65 | higher levels of PERK activation | 16 (≈ 6.12 µg/mL) | > 10 | 
2 | 4.8 | CN(NCc1ccc(O)c(O)c1)c1nc(-c2ccccc2)cc(-c2ccccc2)n1 [GLB11] |  |  |  |  |  | 6 (≈ 2.39 µg/mL) | > 4 | about 20%
3 |  | CN(/N=C/c1ccc(C(F)(F)F)cc1)c1nc(-c2ccccc2)cc(-c2ccccc2)n1 [GLC19, (E)-2-(1-methyl-2-(4-(trifluoromethyl)benzylidene) hydrazinyl)-4,6-diphenyl pyrimidine] |  |  |  |  |  |  |  | about 20%
